We go through 1 compound from patent US20070232594A1, “Aromatic amide derivatives, medicinal compositions containing the same, medical uses of both” (priority 2004, published 2007).

The EC50 is the midpoint of the concentration-response curve.

Molecules are shown by their SMILES.

Data set [1] deals with anesthetized rats infused with hypotonic solution. The data set can be described thus: Antidiuretic effect on diuresis induced by hypotonic solution in anesthetized rats. Format: in vivo, rat. Particulars: 10 μg/kg intravenously. The procedure: The Study of Antidiuretic Effect-the Confirmation Study of Antidiuretic Effect on the Diuretic Activity Induced by Loading Hypotonic Solution in the Anesthetized Rats Infused with Hypotonic Solution
It has been reported that plasma AVP level was decreased with intravenous infusion of hypotonic solution (J. Endocrinol., Vol. 141, pp. 59-67, 1994). The antidiuretic effect of the test compounds in the rats induced a diuretic condition was determined by the method as reported by Angchanpen et al (Br. J. Pharmacol., Vol. 93, pp. 151-155, 1988). The test compounds were dissolved in dimethylsulfoxide at 10 mM, and used in the study. Male SD rats (200-400 g weight) were anesthetized with 100 mg/kg of Inactin (SIGMA) intraperitonealy and each cannula was inserted into trachea, jugular vein, bladder and femoral vein, respectively. […] The urine volume obtained via cannula inserted into bladder was measured every 10 minutes. […]
The average of urine volume measured for three 10 minutes periods before the administration was defined as the pre value (0%). After the administration of the test compounds, the urine volume was measured every 10 minutes. The antidiuretic effect, namely the decrease of the urine volume, induced by administration of test compounds was calculated from the decreasing rate of urine volume (minus %) against the pre value. […]

A further data set relates to Male SD rats. Nature of the data set: Acute toxicity test. Format: in vivo, rat. Particulars: 3 mg/kg intravenously, N=3, one hour observation, urethane anesthesia. Here is the method:
Male SD rats (250-300 g weight) were divided into some groups (N=3) and each cannula was inserted into trachea and jugular vein under anesthesia with urethane (1.5 g/kg, subcutaneously). The test compound solutions were prepared with an adequate solvent to be a dosage of 3 mg/kg, and then the solution was administered intravenously via cannula. The survival rate was determined for an hour experimental period.

The next data set concerns the target human V2 receptor (Homo sapiens, UniProt P30518). Nature of the data set: Study to confirm the agonism of human V2 receptor (intracellular Ca2+, HEK293 cells coexpressing human V2 receptor and Gqs chimeric protein). Format: cell-based. Details: expressed in transfected cells; host or cells: HEK293 cells (American Type Culture Collection), transient transfection with pCI-neo/hV2 and pLEC-Gqs5. Here is the method: The Study to Confirm the Agonism of Human V2 Receptor
The experiment to confirm the response of the test compounds to human V2 receptor was carried out using the cells prepared as described below in order to use this confirmation study to see the agonism of human V2 receptor of the test compounds.
The test compounds were dissolved in dimethylsulfoxide at 10 mM and solutions of the test compounds were prepared by 10-fold serial dilution with the Assay buffer (0.1% BSA, 20 mM HEPES/Hank's balanced salt solution, pH 7.4) at the concentration of 0.1 nM to 10 μM, which were used in this study.
Human V2 receptor couples with Gs protein, one of the G-coupling protein, and consequently produces cyclic adenosine 3′, 5′-monophosphate (cAMP) via adenylate cyclase. This cAMP produce can be substituted to intracellular increase of Ca^2+ with coexpressing Gqs, a chimeric protein, and human V2 receptor (Mol. Pharmacol., Vol. 50, pp. 885-890, 1996). The responses of the test compounds for human V2 receptor were quantified by measuring this intracellular Ca^2+. The changes of intracellular Ca^2+ after adding the test compounds at each concentration as mentioned above (0.1 nM to 10 μM) were measured with a FlexStation (Molecular Devices) using a FLIPR CALCIUM ASSAY KIT (Molecular Devices).
The intrinsic activities (IA) of the test compounds were calculated from the maximum response of the test compounds as that of AVP was considered to be 1. In case of a full agonist, the EC50 values of the test compounds were calculated as the maximum response of AVP was considered to be 100% and in the case of a partial agonist, EC50 values of test compounds were calculated as the maximum response of own test compounds were considered to be 100%. The concentration that achieved to 50% response of the maximum response in a concentration-response curve was considered as EC50 value. The values of EC50 obtained in this study were shown in Table 68 described below as indications of the agonism of human V2 receptor.
The Preparation of the Cells Using Confirmation Study of an Agonism of Human V2, Receptor (HEK293 Cells Coexpressed Human V2 Receptor and Gqs Chimeric Protein)
HEK293 cells (American Type Culture Collection) were incubated in the Eagle's Minimum Essential Medium (EMEM, Invitrogen) containing 1 mM sodium pyruvate, nonessential amino acids (0.1 mM), streptomycin (100 μg/mL), penicillin (100 U/mL), 10% fetal calf serum (Sanko chemicals) in an incubator with 5% CO2 at 37° C. The transfection was carried out by adding pCI-neo hV2 expression vector, expression vector inserted with the sequence coding Gqs chimeric protein (pLEC-Gqs5, LiveWare, Molecular Devices) and Lipofectamine2000 (Invitrogen), all diluted with OPTI-MEM I Reduced Serum Medium I (Invitrogen), to the cell suspension which was prepared from the confluent cells suspended with EMEM as mentioned above without antibiotics at 1×10^6 cells/mL. After the transfection, the cells (HEK293 cells coexpressed human V2 receptor and Gqs chimeric protein) were incubated in an incubator with 5% CO2 for two days and were used as cells for confirming agonism of human V2 receptor, and used for assessment of the test compounds. The expression plasmid vector of human V2 receptor represented as pCI-neo/hV2 above was constructed by the method as described below.
The Method of Construction of Human V2 Receptor Expression Plasmid Vector
cDNA library was obtained from reverse transcription of human kidney total RNA using SuperScript II RNase H-reverse transcriptase (Invitrogen) and oligo dT. The DNA fragment encoding human V2 receptor was amplified by the PCR method using the cDNA library as a template, primers used in combination of each forward primer (sequence no. 1-3 shown below) and each reverse primer (sequence no. 4-6 shown below) respectively and pfu DNA polymerase (Stratagene). This amplified DNA fragment and pCR-blunt kit (Invitrogen), a cloning plasmid vector, were ligated by a general method of the kit. […]

human V2 receptor, sequence (P30518 whole entry): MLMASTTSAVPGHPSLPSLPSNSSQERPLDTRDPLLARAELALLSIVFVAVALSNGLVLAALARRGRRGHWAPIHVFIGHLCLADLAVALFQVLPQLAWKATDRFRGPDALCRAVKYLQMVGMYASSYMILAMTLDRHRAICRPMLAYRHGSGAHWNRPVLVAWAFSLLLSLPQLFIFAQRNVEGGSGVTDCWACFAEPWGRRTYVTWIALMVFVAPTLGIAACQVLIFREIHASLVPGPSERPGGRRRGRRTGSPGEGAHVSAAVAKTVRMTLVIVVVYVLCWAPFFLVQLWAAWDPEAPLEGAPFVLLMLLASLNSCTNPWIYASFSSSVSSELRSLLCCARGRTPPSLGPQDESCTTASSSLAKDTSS

Take `CCOC(=O)CN1Cc2ccccc2N(C(=O)c2ccc(N3CCCC3)cc2Cl)CC1=O` [Example 1-7, ethyl [1-(2-chloro-4-pyrro-lidin-1-ylbenzoyl)-3-ox-o-1,2,3,5-tetra-hydrobenzo[e]-1,4-di-azepin-4-yl]acetate]: in data set [1] (anesthetized male SD rats, against pre value), the “Antidiuretic effect (decreasing rate of urine volume)” value is given as −68.6% ^. Besides, the Duration time in data set [1] (period until decreasing rate of urine volume restored to −20%) worked out at 30 min. Also, in the data set with Male SD rats, the Dead is listed as 0/3. For the same compound, the EC50 on human V2 receptor (intracellular Ca2+, HEK293 cells coexpressing human V2 receptor and Gqs) was found to be 4 nM. In addition, on human V2 receptor (maximum response relative to AVP = 1), the “IA (intrinsic activity)” value is recorded as 0.92.
